From patent US20050257279A1, “Agouti-related protein deficient cells, non-human transgenic animals and methods of selecting compounds which regulate energy metabolism” (priority 2002, published 2005)
Entries after “also recorded” stand apart in the source; their conditions may differ.

Experiments:
[1] = system: primary cultures of rat anterior pituitary cells; experiment: Rat pituitary growth hormone (GH) release; format: cell-based; conditions: 15 min incubation
Procedure: Rat Pituitary Growth Hormone (GH) Release: Compound functional activity was evaluated by measuring growth hormone secretion from primary cultures of rat anterior pituitary cells (Small, et al., (1998) Regulatory Peptides 75-76 and 301-307). Cells were isolated from rat pituitaries by enzymatic digestion with 250 μg/mL DNAse 1 and 0.5% trypsin in Hanks' balanced salt solution. The cells were suspended in culture medium and adjusted to a concentration of 1.5×10^5 cells/ml and 1.0 ml of this suspension was placed in each well of a 24-well tray. Cells were maintained in a humidified 5% CO2/95% air atmosphere at 37° C. for 3-4 days. The culture medium consisted of DMEM containing 0.37% NaHCO3, 10% horse serum, 2.5% fetal bovine serum, 1% nonessential amino acids, 1% glutamine, 1% nystatin, and 0.1% gentamicin. Before testing compounds for their capacity to […] GH release, cells were washed twice 1.5 hr before and once more immediately before the start of the experiment with the above culture medium containing 25 mM Hepes (pH 7.4). Compounds were tested in quadruplicate by adding them in 1 ml of fresh medium to each well and incubating them at 37° C. for 15 minutes followed by centrifugation at 2000×g for 15 min to remove any cellular material. The supernatant fluid was assayed for GH by a double antibody radioimmunoassay.

[2] = 4-hour light-phase food intake in mice; format: in vivo; conditions: human ghrelin 3 μmole/kg i.p.
Description: Mice were individually housed at approximately one month of age. Regular mouse chow (Teklad 7012: 5.67% kcal from fat; 3.41 kcal/g, Harlan Teklad) was provided as pellet food in wire cage tops containing food hoppers.
Food intake values were reported as means ± standard errors of the means, and analyzed by the two tailed, unpaired Student t test. P values of <0.05 were reported as significant.

CCCCCCCC(=O)OC[C@H](NC(=O)[C@H](CO)NC(=O)CN)C(=O)N[C@@H](Cc1ccccc1)C(=O)N[C@@H](CC(C)C)C(=O)N[C@@H](CO)C(=O)N1CCC[C@H]1C(=O)N[C@@H](CCC(=O)O)C(=O)N[C@@H](Cc1c[nH]cn1)C(=O)N[C@@H](CCC(N)=O)C(=O)N[C@@H](CCCNC(=N)N)C(=O)N[C@H](C(=O)N[C@@H](CCC(N)=O)C(=O)N[C@@H](CCC(N)=O)C(=O)N[C@@H](CCCNC(=N)N)C(=O)N[C@@H](CCCCN)C(=O)N[C@@H](CCC(=O)O)C(=O)N[C@@H](CO)C(=O)N[C@@H](CCCCN)C(=O)N[C@@H](CCCCN)C(=O)N1CCC[C@H]1C(=O)N1CCC[C@H]1C(=O)N[C@@H](C)C(=O)N[C@@H](CCCCN)C(=O)N[C@@H](CC(C)C)C(=O)N[C@@H](CCC(N)=O)C(=O)N1CCC[C@H]1C(=O)N[C@@H](CCCNC(=N)N)C(=O)O)C(C)C [Ghrelin]
EC50 [1]: 0.7 nM
effect on 4-hour food intake ([2]; Agrp-/-, Npy-/- double knockout mice): no effect; also recorded: without effect
stimulation of 4-hour food intake ([2]; wild-type control mice, ad libitum fed, relative to saline): 120%
effect on 4-hour food intake ([2]; wild-type mice, relative to saline): stimulated 4-hour food intake
